The values that follow are results of earlier work, collected in patent US4801594A, “Aromatase inhibitors” (Eli Lilly and Company, priority 1984, dated 1989).

In the series the test system is breast cancer. The conditions noted are these: known aromatase inhibitors; see Cancer Research, Vol. 42, Suppl. 8: 3261s (1982).

The structures appear in SMILES notation.

`CCC1(c2ccc(N)cc2)CCC(=O)NC1=O` (centres unmarked) [aminoglutethimide]: the “effect in treatment of breast cancer” value was “beneficial effect”.
Take `C[C@]12C=CC(=O)C=C1CC[C@@H]1[C@@H]2CC[C@]2(C)OC(=O)CC[C@@H]12` [testolactone]: the “effect in treatment of breast cancer” value is recorded as “beneficial effect”.
